Patent publication US12616701B2, “Solid state forms of Resmetirom” (ASSIA CHEMICAL INDUSTRIES LTD., priority 2020, dated 2026)
Counter-ions that a name gives are not always drawn.

Columns and labels:
[1] = Polymorphic stability at relative humidity, room temperature; assay type: physicochemical; conditions: for at least 7 days
[2] = Hygroscopicity of the crystalline form; assay type: physicochemical; conditions: crystalline solid form

| Compound | relative humidity up to which the form is polymorphically stable [1] | hygroscopicity [2] |
| --- | --- | --- |
| CC(C)c1cc(Oc2c(Cl)cc(-n3nc(C#N)c(=O)[nH]c3=O)cc2Cl)n[nH]c1=O [Form RC2-B, Resmetirom:caffeine] | up to 80 % relative humidity | non-hygroscopic |
| CC(C)c1cc(Oc2c(Cl)cc(-n3nc(C#N)c(=O)[nH]c3=O)cc2Cl)n[nH]c1=O [Form 20, 2-[3,5-dichloro-4-[(6-oxo-5-propan-2-yl-1H-pyridazin-3-yl)oxy]phenyl]-3,5-dioxo-1,2,4-triazine-6-carbonitrile] | up to 80 % relative humidity | non-hygroscopic |
| CC(C)c1cc(Oc2c(Cl)cc(-n3nc(C#N)c(=O)[nH]c3=O)cc2Cl)n[nH]c1=O [Form RC1-A, Resmetirom:nicotinamide] | up to 80 % relative humidity | non-hygroscopic |

The next lines start with the values.

| relative humidity up to which the form is polymorphically stable [1] | hygroscopicity [2] | Compound |
| --- | --- | --- |
| up to 100 % relative humidity | non-hygroscopic | CC(C)c1cc(Oc2c(Cl)cc(-n3nc(C#N)c(=O)[nH]c3=O)cc2Cl)n[nH]c1=O [Form RC2-A, Resmetirom:caffeine] |
| up to 100 % relative humidity | non-hygroscopic | CC(C)c1cc(Oc2c(Cl)cc(-n3nc(C#N)c(=O)[nH]c3=O)cc2Cl)n[nH]c1=O [Form R2-A, Resmetirom piperazine salt] |
| up to 80 % relative humidity | non-hygroscopic | CC(C)c1cc(Oc2c(Cl)cc(-n3nc(C#N)c(=O)[nH]c3=O)cc2Cl)n[nH]c1=O [Form R3-A, Resmetirom:L-proline] |
